{
  "source": "patent US20150196533A1",
  "about": "“METHOD FOR CONCURRENT TREATMENT OF PAIN AND DEPRESSION” (The General Hospital Corporation, priority 2012, published 2015)",
  "type_in_all_cases": "in vivo, rat",
  "key": {"IDO1/TPH2": {"tested_on": "IDO1/TPH2", "assay": "IDO1/TPH2 expression in the hippocampus of CFA rats (Example 11)", "conditions": "intraperitoneally once per day, day 1 to day 14 (1-MT 10 mg, fluoxetine 5 mg); tissue taken 7 days after discontinuation", "from_the_text": "Rats were divided into five groups: 1) sham-operated rats treated with a vehicle (Sham), 2) CFA-induced hindpaw pain treated with vehicle (C-V). […] Each treatment was given intraperitoneally once per day from day 1 to day 14. Hippocampal tissue samples were taken after the last behavioral tests at 7 days after discontinuation of the corresponding drug treatment."}, "IDO1 [1]": {"tested_on": "IDO1", "assay": "Hippocampal IDO1 expression (Western blot, real-time PCR) in rats with CFA-induced arthritis", "conditions": "100 mg/kg intraperitoneally once on day 14, same arthritic rats, P>0.05", "experimental": "Rats were sacrificed under pentobarbital anesthesia.\nTotal RNA was isolated from hippocampal samples using TRIzol reagent (Invitrogen). Four μg of total RNA was used to synthesize the first strand cDNA using SuperScript III kit (Invitrogen). Four μl of cDNA was put into 20 μl vessel with 1 μl of 20× TaqMan Gene Expression Assay. Taqman Gene Expression Assays (Applied Biosystems) containing primers and a Taqman probe were used to quantify each gene of interest. […] The reaction was performed in duplicate with the following conditions: denaturing at 95° C. for 30 s, annealing at 60° C. for 2 min, extension at 68° C. for 2 min for 40 cycles using a 7300 Real-Time PCR System (Applied Biosystems). The RNA expression of GAPDH was measured as control."}, "[2]": {"tested_on": "Wistar rats with CFA-induced arthritis", "assay": "Nociceptive tests (von Frey, Hargreaves) in rats with CFA-induced hindpaw monoarthritis", "conditions": "for nociceptive behavior (mechanical allodynia, ipsilateral hindpaw; FIG. 5A): intraperitoneal, 10 mg/day, twice daily for 14 consecutive days after CFA", "protocol": "Hindpaw monoarthritis was induced by the injection of CFA (50 μl) into a unilateral tibio-tarsal joint cavity under brief isoflurane anesthesis (Butler, S. H., et al, and Weil-Fugazza, J. 1992. A limited arthritic model for chronic pain studies in the rat. Pain 48:73-81). Animals in sham groups received the injection of 50 μl Incomplete Freund's Adjuvant.\n(§1) Under brief isoflurane anesthesia, a guide cannula (26 gauge, Plasticsone) was implanted just above the hippocampus (AP: −3.6 mm; left: +2.0 mm from Bregma; depth: −4.0 mm from skin) (Paxinos, G., and Watson, C. 1998. The rat brain in stertaxic coordinates. New York: Academic Press). An injection needle (33 gauge, Plasticsone) was inserted through the guide cannula and drug solution or vehicle (0.5 μl) was slowly injected over 5 min using a Hamilton syringe. Locations of the cannula placement were confirmed at the time of tissue harvest (data not shown).\n(§2) Animals were habituated to a test setting (30-min session) for three consecutive days. Thermal withdrawal threshold was assessed using the Hargreaves' apparatus and method (Hargreaves, K., et al., 1988. A new and sensitive method for measuring thermal nociception in cutaneous hyperalgesia. Pain 32:77-88). Mechanical withdrawal threshold was assessed using von Frey filaments (Tal, M., and Bennett, G. J. 1994. Extra-territorial pain in rats with a peripheral mononeuropathy: mechano-hyperalgesia and mechano-allodynia in the territory of an uninjured nerve. Pain 57:375-382)."}, "[3]": {"tested_on": "Wistar rats with CFA-induced arthritis", "assay": "Depressive behavior (forced swim test) in rats with CFA-induced hindpaw monoarthritis", "conditions": "for depressive behavior (immobility time in FST; FIG. 6H): 100 mg/kg intraperitoneally once on day 14, same arthritic rats, P>0.05"}, "IL-6": {"tested_on": "IL-6", "assay": "Plasma IL-6 level (ELISA) in rats with nociceptive and depressive behavior", "conditions": "systemic treatment; rats with both nociceptive and depressive behavior; data not shown", "protocol": "Under pentobarbital anesthesia, whole blood was collected from the left ventricle of the heart and placed in a serum collection tube (BD Vacutainer). Blood clots were formed after 30-60 min at room temperature and the tube was centrifuged for 10 min at 12,000 rpm. ELISA Quantikine kit (R&D Systems) and IDO ELISA kit (TSZ ELISA) was used according to the manufacturer's instructions. Optical density of samples was read at wavelengths of 450 & 570 nm using a microplate reader (Synergy HT, Bio-TEK®). A standard curve, provided by the manufacturer, was generated for each set of samples assayed and the concentration of each sample was obtained according to the standard curve."}, "IDO1 [4]": {"tested_on": "IDO1", "assay": "Intra-hippocampal microinjection in naive rats: hippocampal IDO1 mRNA (real-time PCR)", "conditions": "intra-hippocampal microinjection alone, naive rats; P>0.05", "protocol": "as §1\nTotal RNA was isolated from hippocampal samples using TRIzol reagent (Invitrogen). Four μg of total RNA was used to synthesize the first strand cDNA using SuperScript III kit (Invitrogen). Four μl of cDNA was put into 20 μl vessel with 1 μl of 20× TaqMan Gene Expression Assay. Taqman Gene Expression Assays (Applied Biosystems) containing primers and a Taqman probe were used to quantify each gene of interest. The genes examined were IL-6 (Rn01410330 m1, M26744.1) and IDO1 (Rn00576778 m1, AF312699.1) for rats and IL-6 (Mm00446190 m1, X54542.1) and IDO1 (Mm00492586 m1, M69109.1) for mice. […] The RNA expression of GAPDH was measured as control."}, "naive rats": {"tested_on": "naive rats", "assay": "Intra-hippocampal microinjection in naive rats: nociceptive and depressive behavior", "protocol": "as §1, §2\nFST was performed according to the original method by Porsolt et al (Porsolt, R. D., Le, P. M., and Jalfre, M. 1977. Depression: a new animal model sensitive to antidepressant treatments. Nature 266:730-732). The total duration of immobility (non-swimming) within a 5-min session was recorded as immobility scores (in seconds) and compared among groups."}, "[5]": {"conditions": "100 mg/kg intraperitoneally once on day 14, examined 1 hr after, arthritic rats, P<0.05 vs vehicle"}},
  "note": "“Also recorded” adds a separate entry of the source.",
  "data": [
    {"smiles": "CNCCC(Oc1ccc(C(F)(F)F)cc1)c1ccccc1", "note": "(stereo not shown) [SSRI, fluoxetine]", "values": [
      {"measurement": "IDO1/TPH2 ratio in the hippocampus", "setting": "IDO1/TPH2", "result": "did not alter the IDO1/TPH2 ratio"}
    ]},
    {"smiles": "CC(=O)Nc1ccc(O)cc1", "note": "[acetaminophen, N-acetyl-para-aminophen]", "values": [
      {"measurement": "hippocampal IDO1 mRNA level (FIG. 6I)", "setting": "IDO1 [1]", "result": "nor did it alter the IDO1 mRNA level"},
      {"measurement": "hippocampal IDO1 mRNA level (FIG. 6I)", "setting": "IDO1 [1]; listed as APAP", "result": "not reversed"},
      {"measurement": "mechanical allodynia (ipsilateral; FIG. 6F)", "setting": "[2]; [5]", "result": "significantly reduced; also recorded: attenuated"},
      {"measurement": "thermal hyperalgesia (FIG. 6G)", "setting": "[2]; [5]", "result": "significantly reduced; also recorded: attenuated"},
      {"measurement": "depressive behavior (immobility time in FST; FIG. 6H)", "setting": "[3]", "result": "did not acutely reverse depressive behavior"},
      {"measurement": "depressive behavior (immobility time in FST; FIG. 6H)", "setting": "[3]; listed as APAP", "result": "did not change the immobility time in FST"}
    ]},
    {"smiles": "Cn1cc(C[C@H](N)C(=O)O)c2ccccc21", "note": "[1-MT, L-1-methyl-tryptophan]", "values": [
      {"measurement": "elevation of the plasma IL-6 level", "setting": "IL-6", "result": "did not prevent elevation of the plasma IL-6 level"},
      {"measurement": "nociceptive behavior (thermal hyperalgesia, ipsilateral hindpaw; FIG. 5C)", "setting": "[2]; intra-hippocampal microinjection, 5 μg in 0.5 μl, once daily x 7 d, contralateral to arthritic hindpaw, P<0.05", "result": "attenuated thermal hyperalgesia"},
      {"measurement": "behaviors in sham control rats", "setting": "[2]; intra-hippocampal microinjection", "result": "without changing behaviors in sham control rats"},
      {"measurement": "nociceptive behavior (mechanical allodynia, ipsilateral hindpaw; FIG. 5A)", "setting": "[2]; arthritic rats, P<0.05 vs vehicle", "result": "significantly attenuated"},
      {"measurement": "nociceptive behavior (mechanical allodynia, ipsilateral hindpaw; FIG. 5A)", "setting": "[2]; arthritic rats, P<0.05 vs vehicle, listed as L-1-MT", "result": "attenuated mechanical allodynia"},
      {"measurement": "behaviors in sham control rats", "setting": "[2]; systemic (intraperitoneal) treatment alone", "result": "did not alter behaviors in sham controls rats"},
      {"measurement": "depressive behavior (immobility time in forced swimming test; FIG. 5D)", "setting": "[3]; intra-hippocampal microinjection, 5 μg in 0.5 μl, once daily x 7 d, P<0.05", "result": "attenuated; also recorded: reduced the immobility time in forced swimming test"},
      {"measurement": "depressive behavior (immobility time in forced swimming test; FIG. 5B)", "setting": "[3]; intraperitoneal, 10 mg/day, twice daily for 14 consecutive days after CFA, arthritic rats, P<0.05 vs vehicle", "result": "significantly attenuated; also recorded: improved the immobility time in forced swimming test"},
      {"measurement": "IDO up-regulation in the hippocampus", "setting": "IDO1/TPH2", "result": "prevented the IDO up-regulation"}
    ]},
    {"smiles": "N#C/C(=C/c1ccc(O)c(O)c1)C(=O)NCc1ccccc1", "note": "[AG490]", "values": [
      {"measurement": "IDO1 mRNA expression", "setting": "IDO1 [4]", "result": "had no effect"},
      {"measurement": "IL-6 effects (mechanical allodynia, thermal hyperalgesia, depressive behavior, hippocampal IDO1 mRNA; FIG. 9E-H)", "setting": "naive rats; 5 μg once daily x 7 d co-administered with IL-6 into the hippocampus of naive rats, each P<0.05", "result": "prevented; also recorded: blocked"},
      {"measurement": "baseline behavioral response", "setting": "naive rats; intra-hippocampal microinjection alone, naive rats, P>0.05", "result": "had no effect"}
    ]}
  ]
}
